Experimental data as given in paper PMC5934329 (Neuropharmacology, 2017).
Several values for one entry are separate records, joined by “and”; a condition that tells them apart may be missing. Equal values may be shown once. Read-outs that look alike come from different tables or passages of the source.

Key:
[1] = test system: male C57BL/6 inbred mice; experiment: THC drug discrimination; type: in vivo; settings: for Effect on response rate: compared to vehicle; for ED50 for substitution in THC discrimination: mice trained with 5.6 mg/kg THC i.p., value (95% confidence limits); for ED50: Mus musculus, ip, read-out: ED50 for substitution in THC discrimination
[2] = biological target: human CB1 (hCB1) (Homo sapiens, UniProt P21554); experiment: [3H]CP55,940 displacement binding at hCB1 membranes
[3] = biological target: human CB2 (hCB2) (Homo sapiens, UniProt P34972); experiment: [3H]CP55,940 displacement binding at hCB2 membranes
[4] = biological target: hCB1 receptor (Homo sapiens, UniProt P21554); experiment: Agonist-stimulated [35S]GTPγS binding, hCB1 membranes; settings: for Emax: read-out: [35S]GTPγS Turnover CB1 Emax
[5] = biological target: hCB2 receptor (Homo sapiens, UniProt P34972); experiment: Agonist-stimulated [35S]GTPγS binding, hCB2 membranes; settings: for Emax: read-out: [35S]GTPγS Turnover CB2 Emax
[6] = biological target: CB1 receptors; settings: read-out: CB1 affinity; rat CB1 receptors ref Huffman et al., 2005; cited from earlier work

Chain of human CB1 (hCB1) (P21554 whole entry): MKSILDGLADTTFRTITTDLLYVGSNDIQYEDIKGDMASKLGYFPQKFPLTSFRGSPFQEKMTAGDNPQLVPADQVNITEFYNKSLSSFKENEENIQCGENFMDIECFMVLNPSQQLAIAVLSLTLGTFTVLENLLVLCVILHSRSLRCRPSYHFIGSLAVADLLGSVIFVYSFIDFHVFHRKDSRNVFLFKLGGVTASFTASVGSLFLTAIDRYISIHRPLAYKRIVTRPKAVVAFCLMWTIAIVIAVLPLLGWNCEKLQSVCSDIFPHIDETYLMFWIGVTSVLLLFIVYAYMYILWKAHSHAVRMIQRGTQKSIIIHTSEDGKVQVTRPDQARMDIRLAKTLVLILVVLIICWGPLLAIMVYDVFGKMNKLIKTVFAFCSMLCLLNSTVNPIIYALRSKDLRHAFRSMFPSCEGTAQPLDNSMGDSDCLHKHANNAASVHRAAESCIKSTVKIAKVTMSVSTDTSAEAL
Chain of hCB1 receptor (P21554 whole entry): as above
Chain of hCB2 receptor (P34972 whole entry): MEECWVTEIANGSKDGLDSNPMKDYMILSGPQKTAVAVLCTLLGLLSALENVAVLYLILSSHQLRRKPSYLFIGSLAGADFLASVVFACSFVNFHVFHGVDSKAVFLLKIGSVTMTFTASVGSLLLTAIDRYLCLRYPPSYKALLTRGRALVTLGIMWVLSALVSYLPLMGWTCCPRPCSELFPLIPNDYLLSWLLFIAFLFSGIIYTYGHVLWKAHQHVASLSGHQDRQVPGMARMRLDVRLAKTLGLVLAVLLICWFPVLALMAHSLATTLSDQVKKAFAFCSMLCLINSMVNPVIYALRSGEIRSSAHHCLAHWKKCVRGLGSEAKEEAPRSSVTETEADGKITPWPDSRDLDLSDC
Chain of human CB2 (hCB2) (P34972 whole entry): as above

Row | Structure (SMILES) | ED50 for substitution in THC discrimination [1] | Ki [2] [µM] | Ki [3] [µM] | ED50 [1] [µmol/kg] | EC50 [4] [µM] | Emax [4] [%] | EC50 [5] [µM] | Emax [5] [%] | other results
1 | CCCCCCC(C)(C)c1ccc(C2CC(O)CCC2CCCO)c(O)c1 (single isomer, unassigned; (-)) [CP55,940, (-)-cis-3-[2-Hydroxy-4-(1,1-dimethylheptyl)phenyl]-trans-4-(3-hydroxypropyl)cyclohexanol, reference compound] | 0.07 (0.04-0.14) μmol/kg | – | – | – | – | – | – | – | Substitution for THC in drug discrimination ([1]; 0.3 mg/kg): full substitution; Effect on response rate ([1]; 0.3 mg/kg): reductions in response rates
2 | CCCCCn1cc(C(=O)c2ccccc2I)c2ccccc21 [AM-679, (2-iodophenyl)(1-pentyl-1H-indol-3-yl)methanone] | – | 0.0396 | 0.0021 | 5.8 | 0.881 | 132 | 0.019 | 31.1 | –
3 | CN1CCCC[C@@H]1Cn1cc(C(=O)c2cccc3ccccc23)c2ccccc21 [AM-1220, (R)-(1-((1-methylpiperidin-2-yl)methyl)-1H-indol-3-yl)(naphthalen-1-yl)methanone] | – | – | 0.00026 | 0.26 | – | 132 | – | – | [35S]GTPγS Turnover CB2 Emax ([5]; % maximal increase over basal, hCB2, value (SEM)): Not determinable; [35S]GTPγS Turnover CB2 EC50 ([5]; hCB2 membranes, value (SEM)): Not determinable
4 | N#CCCCCn1cc(C(=O)c2cccc3ccccc23)c2ccccc21 [AM-2232, 5-(3-(1-naphthoyl)-1H-indol-1-yl)pentanenitrile] | – | 0.0145 | 0.0112 | 0.54 | 0.833 | 204 | 0.406 | 31.3 | Substitution for THC in drug discrimination ([1]; 1.0 mg/kg): full substitution; Effect on response rate ([1]; 1.0 mg/kg): reductions in response rates
5 | CN1CCCCC1Cn1cc(C(=O)c2ccccc2I)c2ccccc21 (stereo not shown) [AM-2233, 1-[(N-methylpiperidin-2-yl)methyl]-3-(2-iodobenzoyl)indole] | – | 0.00663 | 0.00048 | 0.42 | 0.213 | 144 | 0.715 | 21 | –
6 | CCc1ccc(C(=O)c2cn(CCCCCF)c3ccccc23)c2ccccc12 [EAM-2201, (4-ethyl-1-naphthalenyl)[1-(5-fluoropentyl)-1H-indol-3-yl]-methanone] | – | 0.00041 | 0.00038 | 0.04 | 0.0468 | 270 | 0.0919 | 40.2 | Effect on response rate ([1]; across the dose range tested): no doses produced significant differences from vehicle
7 | CCCCCn1cc(C(=O)c2ccc(CC)c3ccccc23)c2ccccc21 [JWH-210, 4-ethylnaphthalen-1-yl-(1-pentylindol-3-yl)methanone] | – | – | 0.00094 | 0.33 | 0.116 | 287 | 0.051 | 43.6 | –
8 | CCCCCn1cc(C(=O)Cc2ccccc2C)c2ccccc21 [JWH-251, 2-(2-methylphenyl)-1-(1-pentyl-1H-indol-3-yl)ethenone] | 4.07 (3.11-5.31) μmol/kg | – | – | – | – | – | – | – | Ki ([2]; read-out: CB1 Ki, [3H]CP55,940 displacement, hCB1, value (SEM)): 0.016 µM and 0.0162 µM; Ki ([3]; read-out: CB2 Ki, [3H]CP55,940 displacement, hCB2, value (SEM)): 0.015 µM and 0.0151 µM; Ki [6]: 0.029 ± 0.003 µM; [35S]GTPγS Turnover CB1 Emax ([4]; % maximal increase over basal, hCB1, value (SEM)): 227.6 (31.6) 3%; EC50 ([4]; read-out: [35S]GTPγS Turnover CB1 EC50, hCB1 membranes, value (SEM)): 0.918 µM; EC50 ([5]; read-out: [35S]GTPγS Turnover CB2 EC50, hCB2 membranes, value (SEM)): 1.52 µM
9 | Cc1ccc(C(=O)c2cn(CCCCCF)c3ccccc23)c2ccccc12 [MAM-2201, (1-(5-fluoropentyl)-1H-indol-3-yl)(4-methyl-1-naphthalenyl)-methanone] | – | 0.00186 | 0.00059 | 0.11 | 0.0361 | 310 | 0.00193 | 23.2 | Substitution for THC in drug discrimination ([1]; 0.3 mg/kg): full substitution; Effect on response rate ([1]; 0.3 mg/kg): reductions in response rates; Potency for stimulating [35S]GTPγS turnover at CB2 relative to CP55,940 ([5]; more potent than CP55,940): approximately 4 fold
10 | CCCCCc1cc(O)c2c(c1)OC(C)(C)[C@@H]1CCC(C)=C[C@@H]21 [THC, Δ^9-tetrahydrocannabinol, reference compound] | 4.96 (3.41-7.21) μmol/kg | – | – | – | – | – | – | – | Effect on response rate ([1]; across the dose range tested): did not alter response rates
